Legend:
[1] = target: Metabotropic glutamate receptor 5 (Homo sapiens, UniProt P41594); assay: Compound was tested for it's […] activity against Ser152 and Thr175 (Metabotropic glutamate receptor 5); type: functional
[2] = target: Metabotropic glutamate receptor 1 (Homo sapiens, UniProt Q13255); assay: Compound was tested for its […] activity against Ser165 and Thr188 (Metabotropic glutamate receptor 1) receptor.; type: functional
Sequence of Metabotropic glutamate receptor 1 (Q13255 whole entry): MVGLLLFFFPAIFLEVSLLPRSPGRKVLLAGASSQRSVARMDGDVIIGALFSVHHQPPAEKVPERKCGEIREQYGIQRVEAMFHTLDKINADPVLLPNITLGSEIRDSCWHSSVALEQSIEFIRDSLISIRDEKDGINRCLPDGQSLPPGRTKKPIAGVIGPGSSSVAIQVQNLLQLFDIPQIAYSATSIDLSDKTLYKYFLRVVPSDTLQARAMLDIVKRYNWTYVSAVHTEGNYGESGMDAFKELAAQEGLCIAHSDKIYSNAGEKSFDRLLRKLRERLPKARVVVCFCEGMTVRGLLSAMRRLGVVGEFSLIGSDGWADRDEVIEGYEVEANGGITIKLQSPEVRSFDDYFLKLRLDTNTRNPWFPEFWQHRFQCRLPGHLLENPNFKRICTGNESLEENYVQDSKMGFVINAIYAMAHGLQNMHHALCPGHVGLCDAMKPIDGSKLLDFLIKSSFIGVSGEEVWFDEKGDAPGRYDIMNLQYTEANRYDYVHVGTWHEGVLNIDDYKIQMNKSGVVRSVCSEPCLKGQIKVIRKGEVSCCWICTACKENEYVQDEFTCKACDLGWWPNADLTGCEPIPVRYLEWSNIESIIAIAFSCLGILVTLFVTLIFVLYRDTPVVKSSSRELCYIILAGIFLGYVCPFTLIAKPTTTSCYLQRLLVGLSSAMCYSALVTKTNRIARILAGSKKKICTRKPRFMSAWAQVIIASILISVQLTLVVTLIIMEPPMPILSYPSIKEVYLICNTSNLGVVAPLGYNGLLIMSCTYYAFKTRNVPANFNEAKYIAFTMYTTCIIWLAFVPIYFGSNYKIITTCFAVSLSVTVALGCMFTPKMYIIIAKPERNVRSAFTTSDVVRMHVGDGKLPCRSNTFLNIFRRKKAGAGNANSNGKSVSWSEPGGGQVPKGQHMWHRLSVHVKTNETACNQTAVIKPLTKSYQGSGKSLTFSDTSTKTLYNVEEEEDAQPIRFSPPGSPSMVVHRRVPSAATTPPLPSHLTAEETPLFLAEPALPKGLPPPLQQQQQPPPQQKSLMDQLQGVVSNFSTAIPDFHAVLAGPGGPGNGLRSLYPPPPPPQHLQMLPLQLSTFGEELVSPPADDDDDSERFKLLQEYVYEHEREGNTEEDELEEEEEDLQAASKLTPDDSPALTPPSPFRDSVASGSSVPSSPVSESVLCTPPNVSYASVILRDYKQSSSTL

Sequence of Metabotropic glutamate receptor 5 (P41594 whole entry): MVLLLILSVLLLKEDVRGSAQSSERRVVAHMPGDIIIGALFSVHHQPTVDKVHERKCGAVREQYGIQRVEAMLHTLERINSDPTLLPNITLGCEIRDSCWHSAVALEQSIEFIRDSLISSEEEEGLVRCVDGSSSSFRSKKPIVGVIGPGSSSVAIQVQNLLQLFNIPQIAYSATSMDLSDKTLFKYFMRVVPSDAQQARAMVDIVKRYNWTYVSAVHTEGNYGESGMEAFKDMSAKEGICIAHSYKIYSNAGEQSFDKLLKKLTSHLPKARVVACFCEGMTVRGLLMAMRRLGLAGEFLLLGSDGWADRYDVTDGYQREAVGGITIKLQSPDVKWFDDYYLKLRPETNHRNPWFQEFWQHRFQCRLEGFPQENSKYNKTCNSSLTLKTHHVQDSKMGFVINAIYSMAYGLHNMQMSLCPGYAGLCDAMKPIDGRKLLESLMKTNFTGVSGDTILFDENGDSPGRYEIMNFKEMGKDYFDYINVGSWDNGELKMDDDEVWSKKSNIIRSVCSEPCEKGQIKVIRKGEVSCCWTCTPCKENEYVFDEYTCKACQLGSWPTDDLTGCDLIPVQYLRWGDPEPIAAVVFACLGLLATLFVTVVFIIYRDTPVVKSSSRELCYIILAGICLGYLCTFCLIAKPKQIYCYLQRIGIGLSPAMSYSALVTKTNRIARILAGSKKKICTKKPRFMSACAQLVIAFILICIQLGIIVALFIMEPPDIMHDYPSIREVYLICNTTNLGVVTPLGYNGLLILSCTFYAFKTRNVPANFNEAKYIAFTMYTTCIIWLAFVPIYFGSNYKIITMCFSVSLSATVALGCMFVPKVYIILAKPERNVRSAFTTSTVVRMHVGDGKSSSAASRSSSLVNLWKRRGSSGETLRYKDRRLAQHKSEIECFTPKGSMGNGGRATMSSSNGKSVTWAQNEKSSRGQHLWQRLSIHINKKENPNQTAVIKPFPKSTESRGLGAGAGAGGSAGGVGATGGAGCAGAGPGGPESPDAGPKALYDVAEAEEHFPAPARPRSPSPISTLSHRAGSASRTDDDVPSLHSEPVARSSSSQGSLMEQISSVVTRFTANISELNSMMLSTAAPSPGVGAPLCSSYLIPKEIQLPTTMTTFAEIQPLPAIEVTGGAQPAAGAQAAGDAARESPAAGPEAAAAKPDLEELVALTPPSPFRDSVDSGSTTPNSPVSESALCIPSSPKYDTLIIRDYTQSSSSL

Row | EC50 [1] | IC50 [1] | IC50 [2] | EC50 [2] | Structure (SMILES)
1 | 750 µM | – | – | – | NC(C(=O)O)c1cc(O)ccc1Cl (stereo not given)
2 | – | > 1000 µM | 214 µM | – | N[C@]1(C(=O)O)CCc2cc(C(=O)O)ccc21
3 | – | > 100 µM | – | – | Cc1cc(C(=O)O)ccc1[C@H](N)C(=O)O

The next lines start with the molecule.

Row | Structure (SMILES) | EC50 [1] | IC50 [1] | IC50 [2] | EC50 [2]
4 | NC(C(=O)O)C12CC(C(=O)O)(C1)C2 (stereo not given) | 103 µM | – | – | –
5 | N[C@H](C(=O)O)c1cc(O)cc(O)c1 | – | – | – | 6.6 µM
6 | Cc1ccc(O)c(/N=N/c2ccccc2)n1 | – | 0.37 µM | > 100 µM | –
7 | Cc1cccc(/C=C/c2ccccc2)n1 | – | 0.29 µM | > 100 µM | –
